Laboratory results published in patent US8883862B2, “Method for controlled release of parathyroid hormone from cross-linked hyaluronic acid hydrogel” (Kaohsiung Medical University, priority 2012, dated 2014).
Read-outs that look alike come from different tables or passages of the source.

Assays:
[1] = system: MC3T3-E1 (osteoblastic cells); assay: Bioactivity of released PTH(1-34): cAMP contents in cells; format: cell-based; conditions: PTH(1-34) released from PTH/CLMH hydrogel at 2, 3, 4, 9, 10 and 11 days; 20 mins incubation
Protocol: The activity of controlled released PTH(1-34) was determined by measuring cAMP contents in cells treated with released PTH(1-34). For these examples, the MC3T3-E1 (osteoblastic cells) was cultured in phenol red-free α-MEM supplemented with 10% fetal bovine serum and […] ascorbic acid. The Cells were seeded into 24-well plates at a density of 50,000 cells/well. 0.25 mM isobutylmethylxanthine was used to inhibit cAMP degradation and incubated with released PTH(1-34) for 20 mins. The cells were lysed directly in the medium by adding 0.1N HCl. Intracellular cAMP was measured using a commercially available immunoassay kit (cayman) following the manufacturer's instructions.
Statistical analysis: Three independent cultures for biochemical analysis were tested. Each example was repeated at least three times, and data (expressed as mean±SEM) from a representative example are shown. Statistical significance was evaluated by one-way analysis of variance (ANOVA), and multiple comparisons were performed by Student's t-test. A p<0.05 was considered significant.

[2] = pulmonary route, cited from earlier work
[3] = Stability of PTH(1-34) under UV exposure (ELISA); format: physicochemical; conditions: 10 minutes of UV exposure
Protocol: The hydrogel was fabricated by the photo-cross linking method. Briefly, 20 mg of methacrylated-hyaluronic acid (MeHA) was dissolved in 650 μL of stock solution (0.9% NaCl/4 mM HCl/0.1% BSA solution) and 100 μL of 0.07% (w/v) 12959 (Ciba specialty chemicals, Taiwan) was added to the solution. After complete dissolution, 250 μL of PTH(1-34) stock solution (10^−5 M) was added to the polymer solution and mixed completely. The mixture was transferred into glass syringe and exposed under UV light for 10 minutes. The resulting PTH/CLMH gel was washed with distilled water and then lyophilized. The morphology of the gel was examined using scanning electron microscopy (SEM) after gold coating of the samples on a stub.
The encapsulation and release kinetics are as follows: 200 μL of PTH(1-34)-loaded CLMH hydrogel (PTH/CLMH gel) suspended in 1 mL of 0.9% NaCl was crushed completely and collected the supernatant. Concentration of PTH(1-34) on the supernatant was measured using a commercially available PTH(1-34) ELISA kit following the manufacturer's instructions.

papain-induced OA = assay: Papain-induced OA in rat knees, histology of articular cartilage (GAG, type II collagen); format: in vivo, Rats; conditions: OA group; intra-articular; PTH(1-34) 10 nM every 3 days, hydrogels every 10 days
Protocol: Rats were divided into the following 2 groups: OA group (OA induction with or without PTH(1-34) treatment) (n=5), non-OA group (n=5) injected with vehicle without PTH(1-34) treatment and OA induction. The right knees were the study joints. OA was induced in the right knees of rats in the OA groups with intra-articular injections of 20 ul of 4% papain solution and 20 ul of 0.03M cysteine. The injections were given with a 23-gauge needle via the patellar tendon on days 1, 4, and 7 of the example. In the OA group, after OA induction, the right knees were injected intra-articularly with 40 ul of 10 nM PTH(1-34) every 3 days or PTH/CLMH or CLMH every 10 days until rats were sacrificed. In the non-OA group, the same treatments were performed but without OA induction. Rats from each group were sacrificed by CO2 inhalation. Histologic analysis: After rats were sacrificed, the knees were harvested, and the tibia plateaus with articular cartilage were collected and fixed with 10% neutral buffered formalin prior to histologic preparation. The samples were then decalcified in 0.05M EDTA. The decalcified tibia articular samples were paraffin embedded, and […] microsections in the coronary plane were prepared. GAG was stained with Safranin O-fast green (1% Safranin 0 counterstained with 0.75% hematoxylin and then 1% fast green; Sigma) (dark color). […]

CC[C@H](C)[C@H](NC(=O)[C@H](CCC(=O)O)NC(=O)[C@H](CO)NC(=O)[C@@H](NC(=O)[C@@H](N)CO)C(C)C)C(=O)N[C@@H](CCC(N)=O)C(=O)N[C@@H](CC(C)C)C(=O)N[C@@H](CCSC)C(=O)N[C@@H](Cc1cnc[nH]1)C(=O)N[C@@H](CC(N)=O)C(=O)N[C@@H](CC(C)C)C(=O)NCC(=O)N[C@@H](CCCCN)C(=O)N[C@@H](Cc1cnc[nH]1)C(=O)N[C@@H](CC(C)C)C(=O)N[C@@H](CC(N)=O)C(=O)N[C@@H](CO)C(=O)N[C@@H](CCSC)C(=O)N[C@@H](CCC(=O)O)C(=O)N[C@@H](CCCN=C(N)N)C(=O)N[C@H](C(=O)N[C@@H](CCC(=O)O)C(=O)N[C@@H](Cc1c[nH]c2ccccc12)C(=O)N[C@@H](CC(C)C)C(=O)N[C@@H](CCCN=C(N)N)C(=O)N[C@@H](CCCCN)C(=O)N[C@@H](CCCCN)C(=O)N[C@@H](CC(C)C)C(=O)N[C@@H](CCC(N)=O)C(=O)N[C@@H](CC(=O)O)C(=O)N[C@H](C(=O)N[C@@H](Cc1cnc[nH]1)C(=O)N[C@@H](CC(N)=O)C(=O)N[C@@H](Cc1ccccc1)C(=O)O)C(C)C)C(C)C [PTH(1-34), teriparatide]
expression of cAMP [1]: increased expression of cAMP | bioavailability ([2]; inhalation of dry powders): 34% | bioavailability ([2]; intratracheal instillation): 40% | stability of PTH(1-34) under UV exposure [3]: no significant adverse effect | level of GAG in OA articular cartilage (papain-induced OA): could reverse papain-induced OA changes by increasing GAG level
